# Measurements as given in US20240066089A1, “ARTOCARPUS HETEROPHYLLUS COMPOSITION AND METHOD OF PROMOTING URINARY TRACT HEALTH” (priority 2022, published 2024).
# What was measured:
# [1] = biological target: 5-alpha-reductase; test: In vitro 5-alpha-reductase assay (NADPH absorbance at 340 nm, liver S9 fraction); assay type: biochemical; conditions: 20 μg liver S9 fraction, 6 minutes at 37° C., Finasteride 20-70 ng/mL
# Description: In vitro 5-alpha-reductase assay was performed according to Sun et al. (1998) with some modifications. NADPH has characteristic absorbance at 340 nm, and the absorbance spectrum may be used to measure the decline in NADPH concentration as a measure of enzyme activity. Briefly, the reaction mixture contained 40 mM phosphate buffer pH 7.0, 93 μM NADPH, 2.265 μM testosterone and 20 μg liver S9 fraction with or without different concentrations of the extract (2-6 μg/mL) or reference compound Finasteride (20-70 ng/mL), incubated for 6 minutes at 37° C. The absorbance was read at 340 nm in UV-visible spectrophotometer. IC50 values were determined for the extract and Finasteride.
# [2] = system: testosterone induced BPH model rats; test: Prostate growth in testosterone-induced BPH model rats; assay type: in vivo, Wistar rats; conditions: 28 days; for Growth inhibition (%): prostate growth, Fina group, 1 mg/kg, mean ± SD n = 6
# [3] = system: testosterone induced BPH model rats; test: Histopathological examination of prostate tissue of BPH model rats; assay type: in vivo, Wistar rats; conditions: H&E stained sections
# [4] = system: testosterone induced BPH model rats; test: Antioxidant activity in prostate tissue of BPH model rats (SOD, catalase, GSH, glutathione reductase); assay type: in vivo, Wistar rats; conditions: Finasteride 1 mg/kg, in comparison with BPH group (p<0.001)
structure (smiles),measurement,setting,value
CC(C)(C)NC(=O)[C@H]1CC[C@H]2[C@@H]3CC[C@H]4NC(=O)C=C[C@]4(C)[C@H]3CC[C@]12C [Finasteride],"IC50 value, 5-alpha-reductase activity",[1],0.0632 µg/mL
same,prostate weights,[2]; in comparison with BPH control (p<0.001),reduced significantly
same,Growth inhibition (%),[2],90.22%
same,Growth inhibition (%),[2]; listed as Fina,90.22 ± 10.85%
same,pathological changes (hyperplastic patterns) in prostate tissue,[3],not evident
same,SOD activity,[4],significantly increased
